We go through two molecules from patent publication US20180008587A1, “THIOHYDANTOIN ANDROGEN RECEPTOR ANTAGONISTS FOR THE TREATMENT OF CANCER” (Jaressen Pharmaceutica NV, priority 2016, published 2018).

The target of one test is T1, AR T877A (Homo sapiens, UniProt P10275, T878A).
T1 construct: expressed in transfected cells; host or cells: HepG2
T1 sequence (P10275 1-920 T878A): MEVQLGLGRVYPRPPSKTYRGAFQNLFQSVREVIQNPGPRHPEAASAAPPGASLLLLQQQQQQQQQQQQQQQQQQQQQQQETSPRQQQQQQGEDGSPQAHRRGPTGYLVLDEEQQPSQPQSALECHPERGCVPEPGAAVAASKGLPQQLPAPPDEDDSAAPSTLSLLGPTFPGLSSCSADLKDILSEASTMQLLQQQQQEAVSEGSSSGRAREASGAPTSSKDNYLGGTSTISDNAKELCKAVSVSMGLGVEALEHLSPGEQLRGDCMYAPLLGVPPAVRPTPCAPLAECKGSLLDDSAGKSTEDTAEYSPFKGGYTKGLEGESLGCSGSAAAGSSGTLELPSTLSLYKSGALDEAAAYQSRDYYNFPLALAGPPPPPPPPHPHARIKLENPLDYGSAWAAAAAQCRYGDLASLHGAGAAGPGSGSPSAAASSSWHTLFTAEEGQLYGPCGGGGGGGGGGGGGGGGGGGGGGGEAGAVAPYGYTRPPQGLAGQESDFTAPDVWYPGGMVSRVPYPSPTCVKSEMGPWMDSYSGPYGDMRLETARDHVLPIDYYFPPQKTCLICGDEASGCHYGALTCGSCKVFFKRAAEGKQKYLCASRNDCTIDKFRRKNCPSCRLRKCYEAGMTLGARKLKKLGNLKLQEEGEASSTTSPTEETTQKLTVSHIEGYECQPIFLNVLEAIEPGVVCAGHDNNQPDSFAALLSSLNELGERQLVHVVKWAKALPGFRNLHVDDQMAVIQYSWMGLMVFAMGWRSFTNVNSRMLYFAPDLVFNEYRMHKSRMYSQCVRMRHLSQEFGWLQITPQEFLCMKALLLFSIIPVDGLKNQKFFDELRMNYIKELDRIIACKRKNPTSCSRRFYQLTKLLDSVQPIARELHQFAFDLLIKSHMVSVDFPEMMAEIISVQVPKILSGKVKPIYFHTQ
In words: Luciferase transcriptional reporter assay, mutant AR, HepG2, antagonist mode. The class given is cell-based. The following applies: HepG2, 90 pM R1881, 48 hours; * denotes incomplete inhibition (otherwise 100%); read-out: Antagonism; IC50, AR construct T877A. The protocol: (§1) HepG2 cells were maintained in EMEM supplemented with 10% FBS. One day before transfection, the media was changed to EMEM with 10% CSS. T-150 flasks were transiently transfected using 120 μL Lipofectamine 2000 (Life Technologies), 30 μg mutant cDNA (expression vector)—mutant cDNA tested were L701H, T877A, W741C and H874Y—and 40 μg 4×ARE-Luciferase (reporter vector) in OptiMEM and the flasks were incubated overnight. Cells were then trypsinized, counted and resuspended at 500,000 cells/mL. For agonist mode, the compounds of Formula (I) are serially diluted and 50 μL of the compound added per well. 50 μL of the cells are added to each well and incubated for 48 hours. For antagonist mode, a final concentration of 90 pM R1881 was added to the diluted compounds and incubated for 48 hours. The plates were then assayed using SteadyGlo and read on the Envision. Percent Stimulation and Inhibition is determined and analyzed using GraphPad Prism.
(§2) All values are calculated relative to the activity of R1881 induced androgen receptor activity (n≧3).

A further test has as its target T2, AR L701H (Homo sapiens, UniProt P10275, L702H).
T2 construct: expressed in transfected cells; host or cells: HepG2
T2 sequence (P10275 1-920 L702H): T1 sequence (P10275 1-920 T878A) with L702H, A878T
Described as above. The class given is cell-based. The following applies: HepG2, 90 pM R1881, 48 hours; * denotes incomplete inhibition (otherwise 100%); read-out: Antagonism; IC50, AR construct L701H. As to the method: as §1, §2

Substitutions are numbered along the chain they refer to.

On to `N#Cc1ncc(N2C(=O)C3(CCC3)N(c3ccc(C(=O)NCCCO)c(F)c3)C2=S)cc1C(F)(F)F` [Cpd 40, 4-[6-[6-cyano-5-(trifluoromethyl)-3-pyridyl]-5-oxo-7-thioxo-6,8-diazaspiro[3.4]octan-8-yl]-2-fluoro-N-(3-hydroxypropyl)benzamide], for which the IC50 on AR T877A was 7.51 µM.

`N#Cc1ncc(N2C(=O)C3(CCC3)N(c3ccc(OC4CCNCC4)cc3)C2=S)cc1C(F)(F)F` [Cpd 35, 5-[5-oxo-8-[4-(4-piperidyloxy)phenyl]-7-thioxo-6,8-diazaspiro[3.4]octan-6-yl]-3-(trifluoromethyl)pyridine-2-carbonitrile]: the IC50 at AR T877A came to 3.59 µM; at AR L701H, 3.36 µM.
